Results reported in patent US12421205B2, “GLP-1 receptor agonist” (HYUNDAI PHARM CO., LTD., priority 2019, dated 2025).

How the values were obtained:
hERG = target: T1, hERG (Homo sapiens, UniProt Q12809); assay: hERG inhibition test (Predictor hERG Fluorescence Polarization assay kit); assay type: binding; settings: probe kit Tracer (fluorescent hERG ligand), hERG % inhibition at 10 uM, relative to E-4031 and solvent control
T1 construct: purchased Invitrogen PV5365
How it was run: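 Competitive fluorescence-polarization binding of fluorescent tracer to hERG membrane preparation, 2.5 h at room temperature, mP read at 531/579 nm. % inhibition at 10 uM test compound, scaled between solvent control (0%) and E-4031 (100%).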

human GLP-1 receptor = target: T2, human GLP-1 receptor (Homo sapiens, UniProt P43220); assay: cAMP activity test (cAMP dynamic HTRF kit) in CHO-K1/GLP-1 receptor-expressing cells; assay type: cell-based; settings: cAMP activity, CHO-K1/GLP-1 receptor-expressing cells; read-out: EC50
T2 construct: host or cells: CHO-K1
How it was run: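 Cells in HBSS with 0.1% BSA, 0.5 mM IBMX and 5 mM HEPES, then lysed; cAMP-d2 and anti-cAMP cryptate added for 3 h. HTRF read-out, where FRET signal is inversely proportional to intracellular cAMP.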

T2 sequence (P43220 24-463): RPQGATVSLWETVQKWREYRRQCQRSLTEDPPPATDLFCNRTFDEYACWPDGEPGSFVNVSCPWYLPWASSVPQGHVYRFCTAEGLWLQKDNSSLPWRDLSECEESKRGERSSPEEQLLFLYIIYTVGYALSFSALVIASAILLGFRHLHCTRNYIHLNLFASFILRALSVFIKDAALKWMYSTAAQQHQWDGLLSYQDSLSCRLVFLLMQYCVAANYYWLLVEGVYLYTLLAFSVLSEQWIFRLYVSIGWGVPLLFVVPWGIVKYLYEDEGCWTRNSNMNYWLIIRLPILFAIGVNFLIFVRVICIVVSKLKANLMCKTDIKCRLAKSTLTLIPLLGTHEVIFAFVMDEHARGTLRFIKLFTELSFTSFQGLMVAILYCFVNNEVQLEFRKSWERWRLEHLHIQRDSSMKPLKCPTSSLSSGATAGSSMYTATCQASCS
T1 sequence (Q12809 whole entry): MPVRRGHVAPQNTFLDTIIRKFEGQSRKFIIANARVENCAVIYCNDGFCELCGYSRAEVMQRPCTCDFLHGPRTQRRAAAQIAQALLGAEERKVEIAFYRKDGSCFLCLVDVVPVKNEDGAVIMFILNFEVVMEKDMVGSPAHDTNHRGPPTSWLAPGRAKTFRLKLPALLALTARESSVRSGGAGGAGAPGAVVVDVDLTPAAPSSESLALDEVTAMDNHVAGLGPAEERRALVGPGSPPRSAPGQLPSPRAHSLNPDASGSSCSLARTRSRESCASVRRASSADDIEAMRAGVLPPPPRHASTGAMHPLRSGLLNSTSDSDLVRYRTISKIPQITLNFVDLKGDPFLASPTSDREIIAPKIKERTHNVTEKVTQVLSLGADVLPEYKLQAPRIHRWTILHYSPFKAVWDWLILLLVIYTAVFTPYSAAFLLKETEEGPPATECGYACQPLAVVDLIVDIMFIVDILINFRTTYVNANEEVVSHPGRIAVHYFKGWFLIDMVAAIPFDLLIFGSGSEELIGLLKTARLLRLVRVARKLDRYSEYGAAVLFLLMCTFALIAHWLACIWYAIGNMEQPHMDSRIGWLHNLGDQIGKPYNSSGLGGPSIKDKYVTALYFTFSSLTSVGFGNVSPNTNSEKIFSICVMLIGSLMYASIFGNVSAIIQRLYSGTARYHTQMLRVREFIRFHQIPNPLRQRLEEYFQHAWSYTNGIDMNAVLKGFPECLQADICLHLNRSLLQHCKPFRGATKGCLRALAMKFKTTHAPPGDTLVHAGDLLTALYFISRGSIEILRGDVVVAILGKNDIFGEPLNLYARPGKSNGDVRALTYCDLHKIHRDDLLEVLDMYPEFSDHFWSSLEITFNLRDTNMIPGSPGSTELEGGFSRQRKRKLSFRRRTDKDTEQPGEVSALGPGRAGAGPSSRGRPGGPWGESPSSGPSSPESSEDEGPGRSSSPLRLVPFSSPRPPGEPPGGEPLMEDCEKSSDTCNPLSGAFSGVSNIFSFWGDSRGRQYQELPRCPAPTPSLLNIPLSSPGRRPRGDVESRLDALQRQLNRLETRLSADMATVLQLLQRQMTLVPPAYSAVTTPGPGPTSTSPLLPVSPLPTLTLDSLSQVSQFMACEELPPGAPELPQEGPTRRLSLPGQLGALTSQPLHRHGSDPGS

SMILES | EC50 (human GLP-1 receptor) [nM] | inhibition at 2.5 h, 10 µM (hERG) [%]
O=C(O)c1ccc2nc(Cc3ccc(-c4ccc(F)c(OCc5ccc(Cl)cc5F)c4)c(F)c3)n(CC3CCCO3)c2c1 (stereo not shown) [Example 92, 2-((3′-(4-chloro-2-fluorobenzyloxy)-2,4′-difluorobiphenyl-4-yl)methyl)-1-((tetrahydrofuran-2-yl)methyl)-1H-benzo[d]imidazole-6-carboxylic acid] | 78 | 8.68
O=C(O)c1ccc2nc(Cc3ccc(-c4ccc(F)c(OCc5ccc(Cl)cc5F)c4)cc3F)n(CC3CCCO3)c2c1 (stereo not shown) [Example 95, 2-((3′-(4-chloro-2-fluorobenzyloxy)-3,4′-difluorobiphenyl-4-yl)methyl)-1-((tetrahydrofuran-2-yl)methyl)-1H-benzo[d]imidazole-6-carboxylic acid] | 100 | -38.2
O=C(O)c1ccc2nc(Cc3ccc(-c4cccc(OCc5ccc(C(F)(F)F)cc5)n4)c(F)c3)n(CC3CCCO3)c2c1 (stereo not shown) [Example 97, 2-(3-fluoro-4-(6-(4-(trifluoromethyl)benzyloxy)pyridin-2-yl)benzyl)-1-((tetrahydrofuran-2-yl)methyl)-1H-benzo[d]imidazole-6-carboxylic acid] | 31 | 6.11
O=C(O)c1ccc2nc(Cc3ccc(-c4cccc(OCc5ccc(F)c(F)c5)n4)c(F)c3)n(CC3CCCO3)c2c1 (stereo not shown) [Example 98, 2-(4-(6-(3,4-difluorobenzyloxy)pyridin-2-yl)-3-fluorobenzyl)-1-((tetrahydrofuran-2-yl)methyl)-1H-benzo[d]imidazole-6-carboxylic acid] | 61 | -2.76
O=C(O)c1ccc2nc(Cc3ccc(-c4cccc(OCc5ccc(Cl)c(F)c5)n4)c(F)c3)n(CC3CCCO3)c2c1 (stereo not shown) [Example 99, 2-(4-(6-(4-chloro-3-fluorobenzyloxy)pyridin-2-yl)-3-fluorobenzyl)-1-((tetrahydrofuran-2-yl)methyl)-1H-benzo[d]imidazole-6-carboxylic acid] | 70 | -0.33
O=C(O)c1ccc2nc(Cc3ccc(-c4cccc(OCc5cc(F)cc(Cl)c5)n4)c(F)c3)n(CC3CCCO3)c2c1 (stereo not shown) [Example 100, 2-(4-(6-(3-chloro-5-fluorobenzyloxy)pyridin-2-yl)-3-fluorobenzyl)-1-((tetrahydrofuran-2-yl)methyl)-1H-benzo[d]imidazole-6-carboxylic acid] | 320 | -10.2
O=C(O)c1ccc2nc(Cc3ccc(-c4cccc(OCc5c(F)cccc5Cl)n4)c(F)c3)n(CC3CCCO3)c2c1 (stereo not shown) [Example 101, 2-(4-(6-(2-chloro-6-fluorobenzyloxy)pyridin-2-yl)-3-fluorobenzyl)-1-((tetrahydrofuran-2-yl)methyl)-1H-benzo[d]imidazole-6-carboxylic acid] | 320 | -2.37
O=C(O)c1ccc2nc(Cc3ccc(-c4ccc(F)c(OCc5ccc(Cl)cc5F)c4)cn3)n(CC3CCCO3)c2c1 (stereo not shown) [Example 102, 2-((5-(3-(4-chloro-2-fluorobenzyloxy)-4-fluorophenyl)pyridin-2-yl)methyl)-1-((tetrahydrofuran-2-yl)methyl)-1H-benzo[d]imidazole-6-carboxylic acid] | 460 | -31.9
COCCn1c(Cn2ccc(-c3cccc(OCc4ccc(C#N)cc4F)c3)cc2=O)nc2ccc(C(=O)O)cc21 [Example 104, 2-((4-(3-(4-cyano-2-fluorobenzyloxy)phenyl)-2-oxopyridin-1(2H)-yl)methyl)-1-(2-methoxyethyl)-1H-benzo[d]imidazole-6-carboxylic acid] | 240 | 8.69
O=C(O)c1ccc2nc(Cn3ccc(-c4cccc(OCc5ccc(Cl)cc5F)n4)cc3=O)n(CC3CCCO3)c2c1 (stereo not shown) [Example 105, 2-((4-(6-(4-chloro-2-fluorobenzyloxy)pyridin-2-yl)-2-oxopyridin-1(2H)-yl)methyl)-1-((tetrahydrofuran-2-yl)methyl)-1H-benzo[d]imidazole-6-carboxylic acid] | 46 | 25.1
O=C(O)c1ccc2nc(Cn3ccc(-c4cccc(OCc5ccc(Cl)cc5F)c4)cc3=O)n(CC3CCCO3)c2c1 (stereo not shown) [Example 106, 2-((4-(3-(4-chloro-2-fluorobenzyloxy)phenyl)-2-oxopyridin-1(2H)-yl)methyl)-1-((tetrahydrofuran-2-yl)methyl)-1H-benzo[d]imidazole-6-carboxylic acid] | 110 | -2.71
N#Cc1ccc(COc2cccc(-c3ccn(Cc4nc5ccc(C(=O)O)cc5n4CC4CCCO4)c(=O)c3)c2)c(F)c1 (stereo not shown) [Example 107, 2-((4-(3-(4-cyano-2-fluorobenzyloxy)phenyl)-2-oxopyridin-1(2H)-yl)methyl)-1-((tetrahydrofuran-2-yl)methyl)-1H-benzo[d]imidazole-6-carboxylic acid] | 380 | 2.7
O=C(O)c1ccc2nc(Cn3ccc(-c4cccc(OCc5ccc(Cl)cc5F)n4)cc3=O)n(C[C@@H]3CCCO3)c2c1 [Example 108, (S)-2-((4-(6-(4-chloro-2-fluorobenzyloxy)pyridin-2-yl)-2-oxopyridin-1(2H)-yl)methyl)-1-((tetrahydrofuran-2-yl)methyl)-1H-benzo[d]imidazole-6-carboxylic acid] | 130 | 4
N#Cc1ccc(COc2cccc(-c3ccn(Cc4nc5ccc(C(=O)O)cc5n4C[C@@H]4CCCO4)c(=O)c3)n2)c(F)c1 [Example 109, (S)-2-((4-(6-(4-cyano-2-fluorobenzyloxy)pyridin-2-yl)-2-oxopyridin-1(2H)-yl)methyl)-1-((tetrahydrofuran-2-yl)methyl)-1H-benzo[d]imidazole-6-carboxylic acid] | 130 | 6.49
O=C(O)c1ccc2nc(Cn3ccc(-c4cccc(OCc5ccc(Cl)cc5F)n4)cc3=O)n(C[C@@H]3CCO3)c2c1 [Example 110, (S)-2-((6-((4-chloro-2-fluorobenzyl)oxy)-2′-oxo-[2,4′-bipyridin]-1′(2′H)-yl)methyl)-1-(oxetan-2-ylmethyl)-1H-benzo[d]imidazole-6-carboxylic acid] | 16 | 7.61
O=C(O)c1ccc2nc(Cn3cnc(-c4cccc(OCc5ccc(Cl)cc5F)n4)cc3=O)n(CC3CCCO3)c2c1 (stereo not shown) [Example 112, 2-((4-(6-(4-chloro-2-fluorobenzyloxy)pyridin-2-yl)-6-oxopyrimidin-1(6H)-yl)methyl)-1-((tetrahydrofuran-2-yl)methyl)-1H-benzo[d]imidazole-6-carboxylic acid] | 290 | 1.14

Further lines, with some results ahead:

EC50 (human GLP-1 receptor) [nM] | SMILES | inhibition at 2.5 h, 10 µM (hERG) [%]
1100 | N#Cc1ccc(COc2cc(-c3ccc(Cc4nc5ccc(C(=O)O)cc5n4CC4CCCO4)cc3F)ccc2F)c(F)c1 (stereo not shown) [Example 93, 2-((3′-(4-cyano-2-fluorobenzyloxy)-2,4′-difluorobiphenyl-4-yl)methyl)-1-((tetrahydrofuran-2-yl)methyl)-1H-benzo[d]imidazole-6-carboxylic acid] | 8.9
830 | N#Cc1ccc(COc2cc(-c3ccc(Cc4nc5ccc(C(=O)O)cc5n4CC4CCCO4)c(F)c3)ccc2F)c(F)c1 (stereo not shown) [Example 96, 2-((3′-(4-cyano-2-fluorobenzyloxy)-3,4′-difluorobiphenyl-4-yl)methyl)-1-((tetrahydrofuran-2-yl)methyl)-1H-benzo[d]imidazole-6-carboxylic acid] | 5.19
< 3.2 | N#Cc1ccc(COc2cccc(-c3cc(F)c(Cc4nc5ccc(C(=O)O)cc5n4C[C@@H]4CCO4)c(F)c3)n2)c(F)c1 [Example 103, (S)-2-(4-(6-(4-cyano-2-fluorobenzyloxy)pyridin-2-yl)-2,6-difluorobenzyl)-1-(oxetan-2-ylmethyl)-1H-benzo[d]imidazole-6-carboxylic acid] | 5.66
20 | N#Cc1ccc(COc2cccc(-c3ccn(Cc4nc5ccc(C(=O)O)cc5n4C[C@@H]4CCO4)c(=O)c3)n2)c(F)c1 [Example 111, (S)-2-((4-(6-(4-cyano-2-fluorobenzyloxy)pyridin-2-yl)-2-oxopyridin-1(2H)-yl)methyl)-1-(oxetan-2-ylmethyl)-1H-benzo[d]imidazole-6-carboxylic acid] | 1.32
< 3.2 | N#Cc1ccc(COc2cccc(-c3ccc(Cc4nc5ccc(C(=O)O)cc5n4C[C@@H]4CCO4)c(F)c3F)n2)c(F)c1 [Example 113, (S)-2-(4-(6-((4-cyano-2-fluorobenzyl)oxy)pyridin-2-yl)-2,3-difluorobenzyl)-1-(oxetan-2-ylmethyl)-1H-benzo[d]imidazole-6-carboxylic acid] | -4.94
< 3.2 | N#Cc1ccc(COc2cccc(-c3ccc(Cc4nc5ccc(C(=O)O)cc5n4CC4CCO4)cc3F)n2)c(F)c1 (stereo not shown) [Example 114, 2-(4-(6-((4-cyano-2-fluorobenzyl)oxy)pyridin-2-yl)-3-fluorobenzyl)-1-(oxetan-2-ylmethyl)-1H-benzo[d]imidazole-6-carboxylic acid] | -4.71
< 3.2 | N#Cc1ccc(COc2cccc(-c3cc(F)c(Cc4nc5ccc(C(=O)O)cc5n4C[C@@H]4CCO4)cc3F)n2)c(F)c1 [Example 115, (S)-2-(4-(6-((4-cyano-2-fluorobenzyl)oxy)pyridin-2-yl)-2,5-difluorobenzyl)-1-(oxetan-2-ylmethyl)-1H-benzo[d]imidazole-6-carboxylic acid] | -2.45
